Source: patent publication US9114126B2, “Na/K-ATPase ligands, ouabain antagonists, assays and uses thereof” (The University of Toledo, priority 2009, dated 2015)
“Also recorded” adds a separate entry of the source.

Columns and labels:
purified Na/K-ATPase [1] = target: T1, purified Na/K-ATPase (Sus scrofa (Pig), UniProt P05024); assay: Na/K-ATPase activity, 96-well high throughput screen assay (released phosphate, BIOMOL GREEN); type: biochemical; conditions: for effect of changes in K+ concentration on compound-induced inhibition of Na/K-ATPase: data not shown
Procedure: The purified Na/K-ATPase was prepared from pig kidney. The specific activities of Na/K-ATPase of various kidney preparations were in the range of 900-1,200 μmol/mg/h, which were greater than 95% of the total ATPase activity. The high throughput screen is conducted in a 96-well format with the final reaction volume of 100 μl containing the following components: 100 mM NaCl, 20 mM KCl, 1 mM MgCl2, 1 mM EGTA, 20 mM Tris-HCl (pH 7.4) and 0.2 μg of purified Na/K-ATPase. After compounds were added, mixtures were incubated for 15 min at 37° C. for 15 min and reaction was initiated by adding 2 mM ATP.Mg mixture.
Reactions were carried out for 15 min and then stopped by the addition of 100 μl ice-cold trichloroacetic acid. Reaction mixtures were cleared by centrifugation, and assayed for released phosphate using the BIOMOL GREEN™ Reagent according to the manufacturer's instructions. In addition, the control Na/K-ATPase activity was measured in the presence and absence of 1 mM ouabain, and taken as 100%. Furthermore, 5 μM ouabain and 0.1% of DMSO were included in each plate as a positive and a vehicle control, respectively.

purified Na/K-ATPase [2] = target: T1, purified Na/K-ATPase; assay: 3H-ouabain binding to the purified Na/K-ATPase; conditions: 20 nM 3H ouabain
Procedure: FIG. 8: Effects of MB5 on ouabain binding to the purified Na/K-ATPase. The purified Na/K-ATPase (2 μg) was incubated with 20 nM ^3H ouabain in the presence of different concentrations of MB5.

purified Na/K-ATPase [3] = target: T1, purified Na/K-ATPase; assay: Na/K-ATPase activity assay (Example II), two-phase inhibition; type: biochemical
Procedure: FIGS. 7A-7C: Dose-dependent inhibition of Na/K-ATPase by MB5: FIG. 7A: The two phase inhibition of both low and high affinity.
The purified Na/K-ATPase was prepared from pig kidney. The specific activities of Na/K-ATPase of various kidney preparations were in the range of 900-1,200 μmol/mg/h, which were greater than 95% of the total ATPase activity. The Na/K-ATPase assay was conducted in the following reaction buffer with the final volume of 500 μl: 100 mM NaCl, 20 mM KCl, 1 mM MgCl2, 1 mM EGTA, 20 mM Tris-HCl (pH 7.4) and 1 μg of purified Na/K-ATPase. After compounds were added, mixtures were incubated for 15 min at 37° C. for 15 min and reaction was initiated by adding 2 mM ATP.Mg mixture. Reactions were carried out for 15 min and then stopped by the addition of 300 μl ice-cold trichloroacetic acid. Reaction mixtures were cleared by centrifugation, and assayed for released phosphate using the BIOMOL GREEN™ Reagent according to the manufacturer's instructions.

[4] = test system: ouabain-induced ERK activation in LLC-PK1 cells; assay: Ouabain-induced activation of ERKs in LLC-PK1 cells after MB5 pretreatment; type: cell-based, pig; conditions: 15 min pretreatment, ouabain 1 nM and 100 nM
Procedure: FIG. 9B: Effects of MB5 on ouabain-induced activation of ERKs. LLC-PK1 cells were pretreated with different concentrations of MB5 (1 nM, 10 μM) for 15 min, exposed to 1 nM ouabain for 10 min, and assayed for active ERKs as in FIG. 9A. A representative set of images is shown.
FIG. 9C: Effects of MB5 on ouabain-induced activation of ERKs. LLC-PK1 cells were pretreated with different concentrations of MB5 (1 nM, 10 μM) for 15 min, exposed to 100 nM ouabain for 10 min, and assayed for active ERKs as in FIG. 9A. A representative set of images is shown.
FIG. 9D: Effects of MB5 on ouabain-induced activation of ERKs. LLC-PK1 cells were pretreated with different concentrations of MB5 (1 nM, 10 μM) for 15 min, exposed to 1 nM ouabain for 1 hour, and assayed for active ERKs as in FIG. 9A. A representative set of images is shown.
(§1) LLC-PK1 cells grown on coverslips were serum starved for 24 h and treated with MB5 or ouabain for different times Immunostaining of p-ERK was performed using the commercial available ERK/MAPK (Phospho-Thr202/Tyr204) Phosphorylation/Translocation Cell-Based Assay Kit according to the manufacturer's instructions. The signals were detected by a Leica confocal microscope. Leica confocal software was used for data analysis.
Ouabain stimulates protein kinase cascades via a Src-dependent pathway in LLC-PK1 cells. […]

[5] = test system: EGF or dopamine-induced ERK activation in LLC-PK1 cells; assay: EGF- or dopamine-induced activation of ERKs in LLC-PK1 cells after MB5 pretreatment; type: cell-based, pig; conditions: MB5 1 nM, 10 μM, 15 min pretreatment
Procedure: FIG. 9E: Effects of MB5 on stimuli-induced activation of ERKs. LLC-PK1 cells were pretreated with different concentrations of MB5 (1 nM, 10 μM) for 15 min, exposed to epidermal growth factor (EGF) or Dopamine stimuli for either 10 or 3 min, and assayed for active ERKs as in FIG. 9A. A representative set of images is shown.
as §1
Ouabain stimulates protein kinase cascades via a Src-dependent pathway in LLC-PK1 cells. To determine whether MB5 can antagonize ouabain-induced signal transduction, treated LLC-PK1 cells were pre-treated with different concentrations of MB5 for 15 min and then exposed to ouabain or other stimuli.

Na-ATPase = Na-ATPase (Sus scrofa (Pig), UniProt P05024); assay: Na-ATPase activity inhibition; type: biochemical
Procedure: In the experiments depicted in FIG. 1A, the dose-response curves of MB7 were compared with ouabain. […] Furthermore, 10 μM MB7 produced 58±6% inhibition of Na-ATPase as did on Na/K-ATPase.

Na/K-ATPase/Src complex = Na/K-ATPase/Src complex (Sus scrofa (Pig), UniProt P05024); assay: Activation of receptor Na/K-ATPase/Src complex (pY418 Western blot); type: biochemical; conditions: reconstituted complex in test tube; ouabain 10 μM, MB7 1 and 10 μM
Procedure: FIG. 3: Effects of MB7 and ouabain on receptor Na/K-ATPase/Src complex. The purified Na/K-ATPase (2 μg) and purified Src were incubated in the presence of either 10 μM ouabain or 1 and 10 μM MB7 for 15 min and assayed for Src activation as described in “Experimental Procedures”. Values are mean SE of at least three independent experiments. **p<0.01 compared with control.
The activity of receptor Na/K-ATPase/Src complex was assayed. Briefly, the purified Src (4.5 U) was incubated with 2 μg of the purified Na/K-ATPase in phosphate-buffered saline (PBS) for 30 min at 37° C. Afterward, the Na/K-ATPase/Src complex was exposed to ouabain or MB7 for 10 min. Reaction was initiated by addition of 2 mM ATP/Mg^2+, continued for 5 min at 37° C. and was stopped by addition of SDS sample buffer. The activation of Src was measured by Western blot using anti-pY418 antibody. Total Src was also probed for loading control.

Src in A549 cells = assay: Src activation in A549 cells (Western blot); type: cell-based, human; conditions: 10 min; 100 nM ouabain, MB7 up to 10 μM
Procedure: FIG. 4A: Effects of MB7 and ouabain on Src and ERKs. A549 cells were treated with ouabain or MB7 for 10 min and cell lysates (50 μg/lane) were separated by SDS-PAGE and analyzed for Src activation as in FIG. 3. The values are mean±S.E. from four separate experiments. *, p<0.05 versus control.
The pig kidney epithelia cells (LLC-PK1 cells) and human lung cancer cells (A549 cells) were obtained from ATCC and maintained in Dulbecco's modified Eagle's medium (DMEM) in the presence of 10% FBS, 100 units/ml penicillin, and 100 μg/ml streptomycin in a 5% CO2 humidified incubator. To eliminate the confounding effect of growth factors in the serum, cells were serum starved for 24 h before experiments unless otherwise indicated.
Cells were washed with PBS and solubilized in ice-cold RIPA buffer containing 1% Nonidet P-40, 1% sodium deoxycholate, 150 mM NaCl, 1 mM EDTA, 1 mM phenylmethylsulfonyl fluoride, 1 mM sodium orthovanadate, 1 mM NaF, 10 μg/ml aprotinin, 10 μg/ml leupeptin, and 50 mM Tris-HCl (pH 7.4) as previously described (13). Cell lysates were then cleared by centrifugation at 14,000 rpm, and supernatants were used for protein assay and subjected to Western blot analysis. Samples were separated on SDS-PAGE (50 μg/lane) and transferred to a cellulose membrane. […] Protein signals were detected using an ECL kit and quantified using a Bio-Rad GS-670 imaging densitometer.

ERKs in LLC-PK1 cells = assay: p-ERK immunostaining in LLC-PK1 cells; type: cell-based, pig; conditions: for cellular ERK activity (active ERKs by immunostaining): LLC-PK1, 10 min, 100 nM ouabain, MB7 from 100 nM to 10 μM
Procedure: FIG. 4B: LLC-PK1 cells were treated with MB7 or ouabain for 10 minutes and were immunostained with the ERK/MAPK (Phospho-Thr202/Tyr204) Phosphorylation/Translocation Cell-Based Assay Kit according to the manufacturer's instructions. The images were collected as described under “Experimental Procedures.” The scale bar represents […]. Images from a representative experiment are shown. The quantitative data of p-ERK were collected from 40 different fields in three independent experiments and expressed as mean±S.E. *, p<0.05 versus control.
as §1, with “MB7” for “MB5”
as §1

[6] = inhibition of purified pig kidney Na/K-ATPase, Table II, read-out: IC50

COc1cc(O)c2c(=O)c3c(OC)c(O)ccc3oc2c1 [2027BA1]
IC50 (purified Na/K-ATPase [1]; [6]): > 100 µM

COc1cc(O)c2c(=O)c3c(O)c(OC)ccc3oc2c1 [2027BA2]
IC50 (purified Na/K-ATPase [1]; [6]): > 100 µM

COc1ccc2oc3cc(OC)c(OC)c(OC)c3c(=O)c2c1 [C-017]
IC50 (purified Na/K-ATPase [1]; [6]): > 100 µM

O=c1c2ccccc2oc2cc(O)cc(O)c12 [MB1, 1,3-Dihydroxyxanthone]
IC50 (purified Na/K-ATPase [1]; [6]): > 100 µM

O=c1c2ccccc2oc2c(O)c(O)ccc12 [MB2, 3,4-Dihydroxyxanthone]
IC50 (purified Na/K-ATPase [1]; [6]): > 100 µM

O=c1c2cccc(O)c2oc2cc(O)cc(O)c12 [MB3, 1,3,5-Trihydroxyxanthone]
IC50 (purified Na/K-ATPase [1]; [6]): 65 µM

O=c1c2cccc(O)c2oc2c(O)c(O)ccc12 [MB5, 3,4,5-Trihydroxyxanthone]
IC50 (purified Na/K-ATPase [1]; [6]): 10 µM
concentration at which significant inhibition of ouabain binding was detected (purified Na/K-ATPase [2]): 0.1 nM
maximal inhibition of ouabain binding (purified Na/K-ATPase [2]; 10 μM MB5): 30%
inhibition at 50 µM (purified Na/K-ATPase [3]; at about 50 μM, read-out: inhibition by low affinity binding): 100%
inhibition of the ATPase activity by high affinity inhibition (purified Na/K-ATPase [3]; high affinity phase): about 25%
IC50 (purified Na/K-ATPase [3]; high affinity site, sub-nM concentrations): 0.04 nM
effect on ouabain-induced activation of ERKs ([4]; MB5 at 1 nM): significantly reduce
effect on ouabain-induced activation of ERKs ([4]; MB5 at 10 μM): completely blocked
effect on ERK activation induced by EGF or dopamine [5]: failed to affect ERK activation

O=c1c2ccc(O)c(O)c2oc2cc(O)cc(O)c12 [MB6, 1,3,5,6-Tetrahydroxyxanthone]
IC50 (purified Na/K-ATPase [1]; [6]): 60 µM

O=c1c2ccc(O)c(O)c2oc2c(O)c(O)ccc12 [MB7, 3,4,5,6-Tetrahydroxyxanthone]
effect on Na+ and ATP affinities of Na/K-ATPase (purified Na/K-ATPase [1]; MB7 at 10 μM, substrate dependence, FIG. 2A-2B): reduced both Na^+ and ATP affinities
effect of changes in K+ concentration on compound-induced inhibition of Na/K-ATPase (purified Na/K-ATPase [1]): no effect
IC50 (purified Na/K-ATPase [1]; dose-dependent inhibition of Na/K-ATPase, FIG. 1A, read-out: apparent IC50): 5 µM
IC50 (purified Na/K-ATPase [1]; [6]): 5 µM
inhibition at 10 µM (Na-ATPase): 58 ± 6%
activation of Na/K-ATPase-associated Src (Na/K-ATPase/Src complex): failed to activate Src
Src activation in A549 cells (Src in A549 cells): failed to do the same
cellular ERK activity (active ERKs by immunostaining) (ERKs in LLC-PK1 cells): failed to affect cellular ERK activity

COc1ccc2c(=O)c3ccc(OC)c(OC)c3oc2c1 [MB8]
IC50 (purified Na/K-ATPase [1]; [6]): > 100 µM

C[C@@H]1O[C@@H](O[C@H]2C[C@@H](O)[C@]3(CO)[C@H]4[C@H](O)C[C@]5(C)[C@@H](C6=CC(=O)OC6)CC[C@]5(O)[C@@H]4CC[C@]3(O)C2)[C@H](O)[C@H](O)[C@H]1O [ouabain]
IC50 (purified Na/K-ATPase [1]): ~5 µM
effect of changes in K+ concentration on compound-induced inhibition of Na/K-ATPase (purified Na/K-ATPase [1]): antagonized
activation of Na/K-ATPase-associated Src (Na/K-ATPase/Src complex): stimulated
Src activation in A549 cells (Src in A549 cells): stimulated Src
cellular ERK activity (active ERKs by immunostaining) (ERKs in LLC-PK1 cells): increased cellular amount of active ERKs
ERK stimulation (ERKs in LLC-PK1 cells; LLC-PK1, ouabain 1 nM and 100 nM, time and concentration-dependent): stimulated ERKs

O=c1c2ccccc2oc2ccccc12 [xanthone, reference compound]
inhibition of Na/K-ATPase activity (purified Na/K-ATPase [1]; dose-response curves): failed to inhibit; also recorded: no detectable inhibition
